According to patent publication US20250290117A1, “MOLECULAR PHENOTYPIC ANTIMICROBIAL SUSCEPTIBILITY TESTING” (priority 2024, published 2025):

How the values were obtained:
Assay type in all cases: cell-based
Escherichia coli [1] = experiment: Traditional culture-based antimicrobial susceptibility test
Method in brief: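 E. coli isolates underwent conventional growth, isolation and exposure to antimicrobials, giving a culture-based susceptibility call for each agent.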

[2] = system: pathogens of clinical samples; experiment: Molecular phenotypic antimicrobial susceptibility test of clinical samples, direct PCR without a separate DNA purification step (Table 6)
Method in brief: (§1)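 Patient specimens in boric acid were grown in culture medium, adjusted to 0.5 McFarland by optical density, then incubated 12-16 hours with antimicrobials in Mueller Hinton Broth at breakpoint concentrations. Growth was read by semi-quantitative PCR, alongside a no-antimicrobial well for pathogen load.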

[3] = system: pathogens of clinical samples; experiment: Molecular phenotypic antimicrobial susceptibility test of clinical samples, extraction DNA purification step prior to PCR (Table 6)
Method in brief: as §1

Escherichia coli [4] = experiment: Molecular phenotypic antimicrobial susceptibility test (extraction or DNA purification prior to PCR)
Method in brief: as §1

[5] = E. coli, clinical sample of r10-r24
[6] = E. coli, clinical sample of r158-r172
[7] = K. aerogenes, clinical sample of r136-r150
[8] = K. pneumoniae, clinical sample of r121-r135
[9] = M. morganii, clinical sample of r55-r69
[10] = M. morganii, clinical sample of r70-r84
[11] = P. mirabilis, clinical sample of r25-r39
[12] = P. mirabilis, clinical sample of r40-r54
[13] = S. aureus, clinical sample of r85-r92

For Gentamicin, the “Traditional Culture Results” value (Escherichia coli [1]; E. coli #1 - WDCM 00090 - 6.2×E3) was “Sensitive”, the “Traditional Culture Results” value (Escherichia coli [1]; E. coli #2 - WDCM 00090 - 6.2×E3) was “Sensitive” and the “Traditional Culture Result” value (Escherichia coli [1]; E. coli isolate 1 (Table 3)) was “Sensitive”. For the same substance, the “Traditional Culture Result” value (Escherichia coli [1]; E. coli isolate 2 (Table 3)) was “Sensitive”, the “Traditional Culture Result” value (Escherichia coli [1]; E. coli isolate 3 (Table 3)) was “Sensitive” and the “Traditional Culture Result” value (Escherichia coli [1]; E. coli isolate 4 (Table 3)) was “Sensitive”. For the same substance, the “Traditional Culture Result” value (Escherichia coli [1]; E. coli isolate 5 (Table 3)) was “Sensitive”, the “Traditional Culture Result” value (Escherichia coli [1]; E. coli isolate JJ1887) was “Resistant” and the “Molecular Antibiotic Susceptibility Result” value [2, 5] was “Sensitive (Antimicrobial wells with pathogen load detected below the control wells (typically >2 cycle thresholds later) may be reported as Sensitive)”. For the same substance, the Ct ([2]; E. coli, clinical sample of r10-r24, Ct control avg 12.97) was 23.559, the “Molecular Antibiotic Susceptibility Result” value [2, 6] was “Sensitive (Antimicrobial wells with pathogen load detected below the control wells (typically >2 cycle thresholds later) may be reported as Sensitive)” and the Ct ([2]; E. coli, clinical sample of r158-r172, Ct control avg 12.894) was 28.667. For the same substance, the “Molecular Antibiotic Susceptibility Result” value [2, 7] was “Sensitive (Antimicrobial wells with pathogen load detected below the control wells (typically >2 cycle thresholds later) may be reported as Sensitive)”, the Ct ([2]; K. aerogenes, clinical sample of r136-r150, Ct control avg 13.854) was 31.347 and the “Molecular Antibiotic Susceptibility Result” value [2, 8] was “Sensitive (Antimicrobial wells with pathogen load detected below the control wells (typically >2 cycle thresholds later) may be reported as Sensitive)”. For the same substance, the Ct ([2]; K. pneumoniae, clinical sample of r121-r135, Ct control avg […]) was 23.5, the “Molecular Antibiotic Susceptibility Result” value [2, 9] was “Sensitive (Antimicrobial wells with pathogen load detected below the control wells (typically >2 cycle thresholds later) may be reported as Sensitive)” and the Ct ([2]; M. morganii, clinical sample of r55-r69, Ct control avg 12.09) was 32.648. For the same substance, the “Molecular Antibiotic Susceptibility Result” value [2, 10] was “Sensitive (Antimicrobial wells with pathogen load detected below the control wells (typically >2 cycle thresholds later) may be reported as Sensitive)”, the Ct ([2]; M. morganii, clinical sample of r70-r84, Ct control avg 11.677) was 30.206 and the “Molecular Antibiotic Susceptibility Result” value [2, 11] was “Sensitive (Antimicrobial wells with pathogen load detected below the control wells (typically >2 cycle thresholds later) may be reported as Sensitive)”. The Ct ([2]; P. mirabilis, clinical sample of r25-r39, Ct control avg 11.801) was 22.67, the “Molecular Antibiotic Susceptibility Result” value [2, 12] was “Sensitive (Antimicrobial wells with pathogen load detected below the control wells (typically >2 cycle thresholds later) may be reported as Sensitive)” and the Ct ([2]; P. mirabilis, clinical sample of r40-r54, Ct control avg 10.06) was 30.321. The “Molecular Antibiotic Susceptibility Result” value [2, 13] was “Sensitive (Antimicrobial wells with pathogen load detected below the control wells (typically >2 cycle thresholds later) may be reported as Sensitive)”, the Ct ([2]; S. aureus, clinical sample of r85-r92, Ct control avg 20.309) was 31.422 and the “Molecular Antibiotic Susceptibility Result” value [3, 5] was “Sensitive (Antimicrobial wells with pathogen load detected below the control wells (typically >2 cycle thresholds later) may be reported as Sensitive)”. The Ct ([3]; E. coli, clinical sample of r10-r24, Ct Control Avg 18.112) was 28.366, the “Molecular Antibiotic Susceptibility Result” value [3, 6] was “Sensitive (Antimicrobial wells with pathogen load detected below the control wells (typically >2 cycle thresholds later) may be reported as Sensitive)” and the Ct ([3]; E. coli, clinical sample of r158-r172, Ct Control Avg 20.146) was 32.759. For the same substance, the “Molecular Antibiotic Susceptibility Result” value [3, 7] was “Sensitive (Antimicrobial wells with pathogen load detected below the control wells (typically >2 cycle thresholds later) may be reported as Sensitive)”, the Ct ([3]; K. aerogenes, clinical sample of r136-r150, Ct Control Avg 19.994) was 36.1 and the “Molecular Antibiotic Susceptibility Result” value [3, 8] was “Sensitive (Antimicrobial wells with pathogen load detected below the control wells (typically >2 cycle thresholds later) may be reported as Sensitive)”. The Ct ([3]; K. pneumoniae, clinical sample of r121-r135, Ct Control Avg 24.272) was 44.195, the “Molecular Antibiotic Susceptibility Result” value [3, 9] was “Sensitive (Antimicrobial wells with pathogen load detected below the control wells (typically >2 cycle thresholds later) may be reported as Sensitive)” and the Ct ([3]; M. morganii, clinical sample of r55-r69, Ct Control Avg 28.86) was “Undet”. For the same substance, the “Molecular Antibiotic Susceptibility Result” value [3, 10] was “Sensitive (Antimicrobial wells with pathogen load detected below the control wells (typically >2 cycle thresholds later) may be reported as Sensitive)”, the Ct ([3]; M. morganii, clinical sample of r70-r84, Ct Control Avg 27.053) was “Undet” and the “Molecular Antibiotic Susceptibility Result” value [3, 11] was “Sensitive (Antimicrobial wells with pathogen load detected below the control wells (typically >2 cycle thresholds later) may be reported as Sensitive)”. For the same substance, the Ct ([3]; P. mirabilis, clinical sample of r25-r39, Ct Control Avg 26.064) was 28.953, the “Molecular Antibiotic Susceptibility Result” value [3, 12] was “Sensitive (Antimicrobial wells with pathogen load detected below the control wells (typically >2 cycle thresholds later) may be reported as Sensitive)” and the Ct ([3]; P. mirabilis, clinical sample of r40-r54, Ct Control Avg 26.987) was 37.234. The “Molecular Antibiotic Susceptibility Result” value [3, 13] was “Sensitive (Antimicrobial wells with pathogen load detected below the control wells (typically >2 cycle thresholds later) may be reported as Sensitive)”, the Ct ([3]; S. aureus, clinical sample of r85-r92, Ct Control Avg 24.32) was “Undet” and the “Ct at Sensitive Breakpoint” value (Escherichia coli [4]; E. coli isolate 1, Ct at control (average) 21.238) was 22.585. For the same substance, the “Molecular Antimicrobial Susceptibility Result” value (Escherichia coli [4]; E. coli isolate 1, at sensitive breakpoint) was “Resistant”, the “Ct at Sensitive Breakpoint” value (Escherichia coli [4]; E. coli isolate 2, Ct at control (average) 21.270) was 24.165 and the “Molecular Antimicrobial Susceptibility Result” value (Escherichia coli [4]; E. coli isolate 2, at sensitive breakpoint) was “Sensitive (Antimicrobial wells with pathogen load detected below the control wells (typically >2 cycle thresholds later) may be reported as Sensitive)”. For the same substance, the “Ct at Sensitive Breakpoint” value (Escherichia coli [4]; E. coli isolate 3, Ct at control (average) 22.0995) was 25.112, the “Molecular Antimicrobial Susceptibility Result” value (Escherichia coli [4]; E. coli isolate 3, at sensitive breakpoint) was “Sensitive (Antimicrobial wells with pathogen load detected below the control wells (typically >2 cycle thresholds later) may be reported as Sensitive)” and the “Ct at Sensitive Breakpoint” value (Escherichia coli [4]; E. coli isolate 4, Ct at control (average) 17.5733) was 22.64. For the same substance, the “Molecular Antimicrobial Susceptibility Result” value (Escherichia coli [4]; E. coli isolate 4, at sensitive breakpoint) was “Sensitive (Antimicrobial wells with pathogen load detected below the control wells (typically >2 cycle thresholds later) may be reported as Sensitive)”, the “Ct at Sensitive Breakpoint” value (Escherichia coli [4]; E. coli isolate 5, Ct at control (average) 21.0933) was 25.77 and the “Molecular Antimicrobial Susceptibility Result” value (Escherichia coli [4]; E. coli isolate 5, at sensitive breakpoint) was “Sensitive (Antimicrobial wells with pathogen load detected below the control wells (typically >2 cycle thresholds later) may be reported as Sensitive)”.
